Test results: the supplement of paper PMC10307832

What was measured:
Experiment in all cases: relative viability (nuclei count vs DMSO), 5 days (fraction); higher = more cells survive
Bromopyruvate + OSI-027 = compound: C(C(=O)C(=O)O)Br [Bromopyruvate] + COc1cccc2cc(-c3nc([C@H]4CC[C@H](C(=O)O)CC4)n4ncnc(N)c34)[nH]c12 [OSI-027] (partner 0.5 µM)
Outline: (§1)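 Dosing by pin tool came one day after lung cancer cell lines were seeded in 1536-well plates, using either one drug or a fixed anchor-drug dose plus five library-drug doses (not always all listed) in √10 steps. After 5 days, nuclei were counted on 4× images. Relative viability is treated-well nuclei count divided by vehicle-well nuclei count, and values are medians of duplicate plates.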

[1] = compound: C(C(=O)C(=O)O)Br [Bromopyruvate] + C[C@@H](Oc1cc(-c2cnn(C3CCNCC3)c2)cnc1N)c1c(Cl)ccc(F)c1Cl [Crizotinib] (partner 1 µM)
Outline: as §1

[2] = compound: C(C(=O)C(=O)O)Br [Bromopyruvate] + Nc1ncn([C@H]2C[C@H](O)[C@@H](CO)O2)c(=O)n1 [Decitabine] (partner 2 µM)
Outline: as §1

Bicalutamide + OSI-027 = compound: CC(O)(CS(=O)(=O)c1ccc(F)cc1)C(=O)Nc1ccc(C#N)c(C(F)(F)F)c1 [Bicalutamide] + COc1cccc2cc(-c3nc([C@H]4CC[C@H](C(=O)O)CC4)n4ncnc(N)c34)[nH]c12 [OSI-027] (partner 0.5 µM)
Outline: as §1

Row | Cell Line | relative viability (Bromopyruvate + OSI-027; first compound 1 µM) | relative viability (Bromopyruvate + OSI-027; first compound 3.162 µM) | relative viability (Bromopyruvate + OSI-027; first compound 10 µM) | relative viability (Bromopyruvate + OSI-027; first compound 31.62 µM) | relative viability (Bromopyruvate + OSI-027; first compound 100 µM) | relative viability ([1]; first compound 1 µM) | relative viability ([1]; first compound 3.162 µM) | relative viability ([1]; first compound 10 µM) | relative viability ([1]; first compound 31.62 µM) | relative viability ([1]; first compound 100 µM) | relative viability ([2]; first compound 1 µM) | relative viability ([2]; first compound 3.162 µM) | relative viability ([2]; first compound 10 µM) | relative viability ([2]; first compound 31.62 µM) | relative viability ([2]; first compound 100 µM) | relative viability (Bicalutamide + OSI-027; first compound 0.08 µM) | relative viability (Bicalutamide + OSI-027; first compound 0.253 µM) | relative viability (Bicalutamide + OSI-027; first compound 0.8 µM) | relative viability (Bicalutamide + OSI-027; first compound 2.53 µM)
1 | NCI-H1975 | 0.742 | 0.912 | 0.687 | 0.731 | 0.718 | 0.95 | 0.955 | 1 | 0.981 | 0.955 | 0.396 | 0.402 | 0.341 | 0.394 | 0.413 | 0.741 | 0.642 | 0.746 | 0.633
2 | CAL-12T | 0.578 | 0.675 | 0.85 | 0.595 | 0.764 | 0.663 | 0.663 | 0.743 | 0.48 | 0.505 |  |  |  |  |  | 0.574 | 0.638 | 0.72 | 0.431
3 | NCI-H1623 | 0.495 | 0.428 | 0.46 | 0.383 | 0.399 |  |  |  |  |  |  |  |  |  |  | 0.43 | 0.447 | 0.487 | 0.531
4 | HCC-44 | 0.616 | 0.634 | 0.483 | 0.596 | 0.483 | 0.787 | 0.724 | 0.735 | 0.862 | 0.884 | 0.987 | 0.926 | 0.895 | 0.943 | 0.908 | 0.723 | 0.403 | 0.66 | 0.477
5 | EKVX | 0.746 | 0.691 | 0.827 | 0.666 | 0.761 | 0.917 | 1.1 | 1.08 | 1.03 | 0.996 | 0.36 | 0.353 | 0.319 | 0.371 | 0.331 | 0.747 | 0.631 | 0.739 | 0.718
6 | NCI-H1651 | 0.746 | 0.704 | 0.799 | 0.694 | 0.63 | 0.876 | 0.83 | 0.919 | 0.847 | 0.796 | 0.604 | 0.587 | 0.709 | 0.548 | 0.588 | 0.654 | 0.562 | 0.856 | 0.694
7 | NCI-H1944 | 0.462 | 0.459 | 0.49 | 0.415 | 0.464 | 1.08 | 1.09 | 1.12 | 1.07 | 1.14 | 0.419 | 0.423 | 0.503 | 0.39 | 0.44 | 0.476 | 0.292 | 0.442 | 0.389
8 | NCI-H1703 |  |  |  |  |  | 0.736 | 0.946 | 0.589 | 0.862 | 0.75 |  |  |  |  |  |  |  |  | 
9 | Calu-6 |  |  |  |  |  | 0.659 | 0.843 | 0.938 | 0.79 | 0.546 |  |  |  |  |  |  |  |  | 
10 | EBC-1 |  |  |  |  |  | 0.235 | 0.218 | 0.187 | 0.187 | 0.196 |  |  |  |  |  |  |  |  | 
11 | A-427 | 0.562 | 0.466 | 0.418 | 0.42 | 0.422 | 0.878 | 0.873 | 0.82 | 0.741 | 0.793 | 0.581 | 0.567 | 0.612 | 0.631 | 0.568 | 0.489 | 0.479 | 0.584 | 0.398
